Assay results published in patent publication US8124032B2, “Microfluidic device and method of using same” (priority 2004, dated 2012).

System: single yeast cell (intracellular carboxylesterase, efflux process)
Assay: Single-cell FDA metabolism (influx/hydrolysis/efflux), curve fitting to enzymatic model
Format: cell-based, Sacchomyces cereviase
Excerpt: In one of the embodiments of the invention, to study a model of a yeast metabolic process using the microfluidic device of the invention, the inventors selected a cell-permeable fluorogenic substrate, fluorescein diacetate (FDA), which is normally used to determine cell viability^42. After influx of FDA into a yeast cell, the intracellular enzyme carboxylesterase^43 hydrolyzes FDA to fluorescein, which will then be excreted from the cell (through efflux).
To examine the cells in an embodiment of the microfluidic device, the device was placed on the translation stage of an inverted microscope and simultaneous optical observation and fluorescent measurement were carried out. To carry out fluorescent intensity calibration in the microfluidic device, polystyrene beads (6 μm diameter, InSpeck™ Green, Molecular Probes) were used. Three-dimensional liquid flow control was accomplished by either electric or fluid potential.
With electric potential control, only low-conducting liquids, such as G7, H4 could be delivered to the cells (cell 3, 4, 5). The two buffers were G7 (28.5 mM HEPES, 256 mM D-glucose, pH=7.3) and H4 (285 mM HEPES, pH=4.3). 12 μM FDA was used, where appropriate. With fluid potential (<1 mm) control, highly conducting liquids such as YPD, NaCl, KCl, EDTA could also be used.
FIG. 16I depicts the schematic diagram of a yeast cell with a daughter bud, showing the relationship between the concentrations of extracellular FDA (A), intracellular FDA (B) and fluorescein (C) as a function of time (t). The kinetic model can be described by several equations. Equation (1) is the material balance of FDA (B) in the cell. Equation (2) is the material balance of fluorescein (C) in the cell. Equations (1) and (2) were derived from first principles as discussed below.
[formula] The notations are A: extracellular FDA (μM); B: intracellular FDA (μM); C: intracellular fluorescein (μM); S: cell surface area (μm^2) and V: cell volume (μm^3), as calculated from the diameter (μm) of the cell (D1) and its bud (D2); kb: transport coefficient (μm s^−1); Vm (μM s^−1) and Km (μM): Michaelis-Menten kinetic parameters for the carboxylesterase; Ve (μM μm s^−1) and Ke (μM): Michaelis-Menten kinetic parameters for the efflux process.
[formula] Equation (3) represents the increasing rate of the carboxylesterase activity as indicated by the Michaelis-Menten parameter Vm, where k is the rate constant (μM s^−2). Derivation for Equation (1): Material Balance of FDA in the Cell
Here, T0, T1 and T2 are the time at which influx, hydrolysis and efflux start, respectively.
In the self-control mode, when influx is not allowed, kb=0. […] During hydrolysis (T1 to T2), there is no influx and efflux, i.e. kb=0, Vm>0, and Ve=0. Finally, during efflux (after T2), there is no influx and hydrolysis, i.e. kb=0, Vm=0, and Ve>0. In the lost-control mode, kb>0, Vm>0, and Ve>0. In the “death” mode, kb=0, Vm=0, and Ve=0. In this case, the cell appears dead when there is no change in the concentration of cellular fluorescein.
Curve-fitting experiments were also carried out for two other single yeast cells under various stimuli, see FIG. 17.

[1] = cell 3, T0 2140 s, self-control mode
[2] = cell 4, T0 2560 s, self-control mode
[3] = cell 4, T0 4950 s, self-control mode
[4] = cell 4, T0 6590 s, self-control mode
[5] = cell 4, T0 8627 s, lost-control mode
[6] = cell 5, T0 208 s, self-control mode
[7] = cell 5, T0 1030 s, self-control mode
[8] = cell 5, T0 2026 s, self-control mode
[9] = cell 5, T0 3300 s, self-control mode
[10] = cell 5, T0 5600 s, lost-control mode
[11] = cell ‡ (another single yeast cell similar to cell 3), T0 2200 s, self-control mode

With `CC(=O)Oc1ccc2c(c1)Oc1cc(OC(C)=O)ccc1C21OC(=O)c2ccccc21` [FDA, fluorescein diacetate] the “Vm0 (initial value of Vm, carboxylesterase)” value (from here on “Vm0”) [1] was 0.0012 µM/s, the “k (rate constant of increase of Vm)” value [1] was 4 10^−6 μM s^−2 and the “Vm0” value [2] was 0.002 µM/s. For the same compound, the “k (rate constant of increase of Vm)” value [2] was 25 10^−6 μM s^−2, the “Vm0” value [3] was 0.01 µM/s and the “k (rate constant of increase of Vm)” value [3] was 25 10^−6 μM s^−2. For the same compound, the “Vm0” value [4] was 0.04 µM/s, the “k (rate constant of increase of Vm)” value [4] was 0 10^−6 μM s^−2 and the “Vm0” value [5] was 0.009 µM/s. The “k (rate constant of increase of Vm)” value [5] was 0 10^−6 μM s^−2, the “Vm0” value [6] was 0.02 µM/s and the “k (rate constant of increase of Vm)” value [6] was 0 10^−6 μM s^−2. For the same compound, the “Vm0” value [7] was 0.005 µM/s, the “k (rate constant of increase of Vm)” value [7] was 0 10^−6 μM s^−2 and the “Vm0” value [8] was 0.0018 µM/s. For the same compound, the “k (rate constant of increase of Vm)” value [8] was 2 10^−6 μM s^−2, the “Vm0” value [9] was 0.004 µM/s and the “k (rate constant of increase of Vm)” value [9] was 15 10^−6 μM s^−2. For the same compound, the “Vm0” value [10] was 0.015 µM/s, the “k (rate constant of increase of Vm)” value [10] was 0 10^−6 μM s^−2 and the “Vm0” value [11] was 0.007 µM/s. For the same compound, the “k (rate constant of increase of Vm)” value [11] was 4 10^−6 μM s^−2.
